For one test, the target named is T1, A2AAR (Homo sapiens, UniProt P29274).
T1 construct: expressed in transfected cells
Kind of test: Competition radioligand binding, hA2AAR ([3H]ZM241385 or [3H]CGS21680). Conditions: for fold weaker A2AAR affinity with respect to the parent amino derivative 6c / Ki: human A2AAR; for Ki: HEK-293 membranes, [3H]ZM241385 1.0 nM, 1 h 25 °C, mean ± SEM, read-out: Affinity, Ki, A2A. On the procedure:
The affinity of the amine congeners and other antagonists was measured using standard radioligand binding assays for hA1, A2A and A3ARs (Table 1).[1],[13],[14],[22] Membranes of human embryonic kidney (HEK)293 cells expressing the AR of interest were used in the assay. Primary amine congeners 6a–6d containing spacers of 2–5 methylenes were similar in terms of hA2AAR affinity (Ki 6–9 nM), with the butylamino congener 6c displaying the highest A2AAR selectivity in the series. The affinity of this compound for the hA3AR was determined to be 6.0 μM, with only slightly higher hA1AR affinity. Homologation to 6 methylenes in compound 6e lowered A2AAR affinity. […] No dependence of the affinity on the chain length was evident when comparing AlexaFluor647 conjugates 9 and 10.
Fig. 1 Antagonist radioligand ([^3H]2, 1.0 nM) binding inhibition curves for the hA2AAR for four antagonist fluorescent conjugates. Compound numbers: MRS7322 9, MRS7395 10, MRS7396 11 and MRS7416 12. Membranes from HEK-293 cells expressing the hA2AAR were used, and their incubation was performed for 1 h at 25 °C. Results are expressed as the mean ± SEM.
Cell culture for membrane binding assays and flow cytometry: HEK-293 cells stably expressing the A2AAR were grown in Dulbecco’s Modified Eagle’s Medium (DMEM) with 10% FBS, 100 units/ml penicillin, […] streptomycin, 2 mM L-glutamine and 0.500 mg/mL G418 Sulfate (Geneticin). […]
Radioligand binding assays: Cell membranes were prepared as reported.1
Binding assays were carried out using standard radioligands and membrane preparations from HEK-293 cells stably expressing the human (h) A1, A2A or A3ARs or mouse (m) A1, A2A or A3ARs. The radioligands used were: A1AR, [3H]8-cyclopentyl-1,3-dipropylxanthine 14; A2AAR, [3H]2; A3AR, [125I]N6-(4-amino-3-iodobenzyl)adenosine-5′-N-methyluronamide 16. The radioligand for archival A2AAR affinity data presented in Table 1 was [3H]2-[p-(2-carboxyethyl)phenyl-ethylamino]-5′-N-ethylcarboxamidoadenosine 15. Nonspecific binding was determined using 10 µM 8-[4-[[[[(2-aminoethyl)amino]carbonyl]methyl]oxy]phenyl]-1,3-dipropylxanthine 17 (A1AR and A2AAR) or 10 µM adenosine-5′-N-ethyluronamide 18 (A3AR). HEK-293 cells expressing recombinant mA1, A2A, or A3AR […]
Protein was determined as reported.2 In all the binding experiments, IC50 values and Ki values were calculated using GraphPad Prism software (San Diego, CA). Values are expressed as mean±SEM. […]
Med. Chem. Comm., 2015, 6:555-563.
2. Bradford, M. M. A rapid and sensitive method for the quantitation of microgram quantities of protein utilizing the principle of protein -dye binding. Anal. Biochem. 1976, 72, 248-254.

For another test, the target named is T2, hA2AAR (Homo sapiens, UniProt P29274).
T2 construct: expressed in transfected cells
In words: Flow cytometry saturation binding of fluorescent antagonists in whole cells. The format is cell-based. Conditions: hA2AAR-expressing HEK-293 cells; for nonspecific binding: result in words. The method, then:
Compounds 11 and 12 were tested as fluorescent tracers for flow cytometry of HEK-293 cells expressing the hA2AAR (Fig. 4A). […] Thus, 11 tended to bind non-specifically to hydrophobic membranes by undetermined mechanisms. […]. For inhibition studies, the cells were co-incubated for one hour prior to flow cytometry with fluorescent probe 12 (10 nM) and a test antagonist. […]
Fig. 4 Saturation of fluorescent antagonists 11 (A) and 12 (B) in hA2AAR-expressing HEK-293 cells measured using flow cytometry following a 1 h incubation at 37 °C. Non-specific binding was determined with 10 μM 3. Results are expressed as the mean ± SEM. The Kd value calculated from Fig. 4B is listed in the text.
Cell culture for membrane binding assays and flow cytometry: HEK-293 cells stably expressing the A2AAR were grown in Dulbecco’s Modified Eagle’s Medium (DMEM) with 10% FBS, 100 units/ml penicillin, […] streptomycin, 2 mM L-glutamine and 0.500 mg/mL G418 Sulfate (Geneticin). Cells were maintained in a humidified atmosphere and sterile incubation conditions held at 37 °C and 5% CO2 (g). A day prior to the experiment, cells were plated on a 96 -well clear and flat bottom plate at 80 -90% confluency in 100 µL of medium. […]
Fluorescent binding studies: All binding studies were done in triplicate. For saturation binding studies, cells were treated with 50 µL of 11 (MRS 7396) or 12 (MRS 7416), to achieve a final concentration from 0.19 to 400 nM, and 50 µL of Tris-HCl buffer containing 10 mM MgCl2. Non-specific binding was determined with SCH442416 3 (final concentration of 10 µM, in Tris-HCl buffer). For displacement experiments, cells were incubated simultaneously with 50 µL of 40 nM 11 or 12 (final concentration 10 nM) and 50 µL of the non-labeled displacing ligand at increasing concentrations. The total binding was measured in the absence of a displacing ligand, and non-specific binding was determined with 10 µM 3.
After 1 h at 37 °C (for both the saturation and displacement experiments), the medium was removed and the cells were carefully washed two times with 150 µL of ice-cold PBS (not containing Mg+2 or Ca+2).
The cells were treated with 40 µL of Corning Cellstripper (Mediatech, Manassas, VA) per well and then incubated at 37 °C for 10 min. To each well was subsequently added 160 µL of PBS (not containing Mg+2 or Ca+2), and the cell fluorescence was analyzed with a BD FACSCalibur flow cytometer (Becton, Dickinson and Co., Franklin Lakes, NJ) with excitation at 635 nm (red diode laser, for 11) or 488 nm (blue laser, for 12) in conjunction with the software from BD Bioscience PlateManager and CellQuest. […]
2. Bradford, M. M. A rapid and sensitive method for the quantitation of microgram quantities of protein utilizing the principle of protein -dye binding. […]
On the technique in general: Flow cytometry measures light scatter and fluorescence of single cells or particles in a stream.

T1 sequence (P29274 whole entry): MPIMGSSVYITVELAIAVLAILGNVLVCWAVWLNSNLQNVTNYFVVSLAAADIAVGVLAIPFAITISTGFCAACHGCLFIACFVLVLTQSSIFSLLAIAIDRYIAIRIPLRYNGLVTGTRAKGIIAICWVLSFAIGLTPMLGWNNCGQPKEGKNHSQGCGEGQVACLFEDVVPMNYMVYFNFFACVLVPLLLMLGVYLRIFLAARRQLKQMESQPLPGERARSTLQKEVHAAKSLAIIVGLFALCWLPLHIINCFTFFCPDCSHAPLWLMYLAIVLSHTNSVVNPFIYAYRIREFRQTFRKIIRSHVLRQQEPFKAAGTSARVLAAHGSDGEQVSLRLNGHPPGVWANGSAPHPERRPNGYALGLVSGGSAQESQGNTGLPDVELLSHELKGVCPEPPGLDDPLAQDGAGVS
T2 sequence (P29274 whole entry): as above

Usually Ki stands for a measure of affinity in units of concentration, obtained from inhibition or displacement. As for `Nc1nc2c(cnn2CCCc2ccc(OCC(=O)NCCCCNC(=O)CCCCCNC(=O)COc3ccc(/C=C/C4=[N+]5C(=Cc6ccc(-c7cccs7)n6[B-]5(F)F)C=C4)cc3)cc2)c2nc(-c3ccco3)nn12` [compound 11], at A2AAR, the “fold weaker A2AAR affinity with respect to the parent amino derivative 6c” value was 4 fold and the Ki is 24.6 ± 17.6 nM. Also, the “specific binding, % of the total” value at hA2AAR (1 h 37 °C, nonspecific with 10 μM 3) is under 25%. Moreover, the nonspecific binding entry on hA2AAR is given as “high nonspecific binding”.

The Kd is a measure of binding affinity in units of concentration. A higher Kd goes with lower affinity. `CCN(CC)CC.CCN(CC)CC.N=c1ccc2c(-c3ccc(C(=O)NCCCCNC(=O)COc4ccc(CCCn5ncc6c5nc(N)n5nc(-c7ccco7)nc65)cc4)cc3C(=O)O)c3ccc(N)c(S(=O)(=O)O)c3oc-2c1S(=O)(=O)O` [compound 12]: at A2AAR, the “fold weaker A2AAR affinity with respect to the parent amino derivative 6c” value is 4 fold and the Ki came to 30.3 ± 4.9 nM. On hA2AAR (1 h 37 °C), binding was characterised by a dissociation constant (Kd) of 45.4 nM. Further, at hA2AAR, the nonspecific binding result is “low nonspecific binding”.

`N.Nc1nc2c(cnn2CCCc2ccc(OCc3ccc(S(=O)(=O)O)cc3)cc2)c2nc(-c3ccco3)nn12` [compound 13]: the “A2AAR selectivity compared to the hA1AR” value on A2AAR (hA2AAR vs hA1AR binding) is 671 fold. Besides, the “A2AAR selectivity compared to the hA3AR” value on A2AAR (hA2AAR vs hA3AR binding) is 426 fold. Also, the Ki at A2AAR was 6.2 nM.

For the origin of these results see article PMC5729930, “Bitopic fluorescent antagonists of the A2A adenosine receptor based on pyrazolo[4,3-e][1,2,4]triazolo[1,5-c]pyrimidin-5-amine functionalized congeners” (MedChemComm, 2017).
